The test system of assay [1] is Peripheral Sensory Neuropathy Induced by Paclitaxel in Mice. The experiment in a line: cold plate test, paclitaxel-induced peripheral sensory neuropathy. The settings on record: duloxetine 30 mg/kg daily. The assay is classed as in vivo. The procedure:
(§1) The effect of the Lentinus edodes mycelium extract on the paresthesia to cold stimulation was tested by performing the cold plate test. The mice in the three groups in the above (1) were put on a cold plate set to 10° C. and a response time for avoidance (a latency) was measured. The shorter latency means that the mouse avoids the cold stimulation of the cold plate more.
In the present test, the mice were divided into four groups by a difference in test objects. As in Example 1, male Balb/c mice of 6 to 7 weeks old were used. The mice were divided into a total of four groups, a control group, a paclitaxel administration group, and two different paclitaxel and Lentinus edodes mycelium extract administration groups (paclitaxel+Lentinus edodes mycelium extract administration groups). […] Further, a group in which the Lentinus edodes mycelium extract was administered to each mouse once a day at a dose of 1 g/kg (hereinafter referred to as “1 g/kg administration group”) and a group in which the Lentinus edodes mycelium extract was administered to each mouse once a day at a dose of 2 g/kg (hereinafter referred to as “2 g/kg administration group”) were prepared.
Evaluation was performed in the same manner as in the test with oxaliplatin. Referring to FIG. 4, the horizontal axis indicates the elapsed time after administration (days) and the vertical axis indicates the avoidance response time (seconds). Open circles with a solid line represent the control group. Filled circles with a solid line represent the group in which only paclitaxel was administered. Open squares with a dash line and filled squares with a dash line represent the groups in which paclitaxel and the Lentinus edodes mycelium extract were administered at the same time (paclitaxel+Lentinus edodes mycelium extract administration groups). […] When the difference with the control group was determined to be significant using a significance level of 5%, the data were marked by “*”. […]

Assay [2] has as its system Peripheral Sensory Neuropathy Induced by Bortezomib in Mice. Put plainly: cold plate test, bortezomib-induced peripheral sensory neuropathy. The assay is classed as in vivo. The settings on record: duloxetine 30 mg/kg daily. The procedure: as §1
In the present test, the mice were divided into three groups by a difference in test objects. As in Example 1, male Balb/c mice of 6 to 7 weeks old were used. The mice were divided into a total of three groups, a control group, a bortezomib administration group, and a bortezomib and Lentinus edodes mycelium extract administration group (bortezomib+Lentinus edodes mycelium extract administration group).
Bortezomib was administered to each mouse once a day at a dose of 1 mg/kg. Further, the Lentinus edodes mycelium extract was administered to each mouse once a day at a dose of 2 g/kg.
Evaluation was performed in the same manner as in the test with oxaliplatin in Example 1. Referring to FIG. 8, the horizontal axis indicates the elapsed time after administration (days) and the vertical axis indicates the avoidance response time (seconds). Open circles with a solid line represent the control group. Filled circles with a solid line represent the group in which only bortezomib was administered. Open squares with a dash line represent the group in which bortezomib and the Lentinus edodes mycelium extract were administered at the same time (bortezomib+Lentinus edodes mycelium extract administration groups). When the difference with the control group was determined to be significant using a significance level of 5%, the data were marked by “*”.
In the present test, the mice were divided into six groups by a difference in test objects. As in Example 1, male Balb/c mice of 6 to 7 weeks old were used. […]

Structures are written as SMILES.

For `CNCC[C@H](Oc1cccc2ccccc12)c1cccs1` [duloxetine], the “latency compared with paclitaxel administration group, cold plate test” value in assay [1] (3-day delayed after paclitaxel) is on record as “almost the same as that in the paclitaxel administration group”. In addition, the “latency, cold plate test” value in assay [1] (6-day delayed after paclitaxel) and in assay [2] (6-day delayed after bortezomib) was “same tendency as that in the duloxetine 3-day delayed administration group” throughout. Moreover, the “latency compared with bortezomib administration group, cold plate test” value in assay [2] (3-day delayed after bortezomib) is listed as “almost the same as that in the bortezomib administration group”.

Source of the values: patent US11793845B2, “Composition for ameliorating peripheral sensory neuropathy” (KINKI UNIVERSITY, priority 2016, dated 2023).
